Activity calls are given as the source filed them. The calls are words filed in the database; no cut-off is given here.
Experiments:
Mus musculus [1] = experiment: Antifibrotic activity in C57BL/6 mouse model of bleomycin-induced lung fibrosis assessed as reduction in collagen level in lung at 60 mg/kg, po pre-treated 1 hr to 1 day before bleomycin injection and measured after 14 to 28 days by hydroxyproline assay; type: functional, organism-based
Mus musculus [2] = experiment: Antifibrotic activity in C57BL/6 mouse model of bleomycin-induced lung fibrosis assessed as reduction in cross linked collagen level in lung at 60 mg/kg, po pre-treated 1 hr to 1 day before bleomycin injection and measured after 14 to 28 days by Masson's trichrome staining based assay; type: functional, organism-based
Mus musculus [3] = experiment: Antifibrotic activity in C57BL/6 mouse model of bleomycin-induced lung fibrosis assessed as reduction in cross linked collagen level in lung at 60 mg/kg, po pre-treated 1 hr to 1 day before bleomycin injection and measured after 14 to 28 days by Picro-Sirius staining based assay; type: functional, organism-based
Mus musculus [4] = experiment: Antifibrotic activity in C57BL/6 mouse model of bleomycin-induced lung fibrosis assessed as reduction in alpha smooth muscle actin level in lung at 60 mg/kg, po pre-treated 1 hr to 1 day before bleomycin injection and measured after 14 to 28 days by immunohistochemistry analysis; type: functional, organism-based
Mus musculus [5] = experiment: Antifibrotic activity in C57BL/6 mouse model of bleomycin-induced lung fibrosis assessed as reduction in hydroxyproline in lung homogenates at 60 mg/kg, po pre-treated 1 hr to 1 day before bleomycin injection and measured after 14 to 28 days by chloramine T and Erlich's solution based assay; type: functional, organism-based
Mus musculus [6] = experiment: Antifibrotic activity in C57BL/6 mouse model of bleomycin-induced lung fibrosis assessed as reduction in collagen level in lung at 60 mg/kg, po treated 7 to 14 days after bleomycin injection and measured after 14 to 28 days by hydroxyproline assay; type: functional, organism-based
Mus musculus [7] = experiment: Antifibrotic activity in C57BL/6 mouse model of bleomycin-induced lung fibrosis assessed as reduction in cross linked collagen level in lung at 60 mg/kg, po treated 7 to 14 days after bleomycin injection and measured after 14 to 28 days by Masson's trichrome staining based assay; type: functional, organism-based
Mus musculus [8] = experiment: Antifibrotic activity in C57BL/6 mouse model of bleomycin-induced lung fibrosis assessed as reduction in cross linked collagen level in lung at 60 mg/kg, po treated 7 to 14 days after bleomycin injection and measured after 14 to 28 days by Picro-Sirius staining based assay; type: functional, organism-based
Mus musculus [9] = experiment: Antifibrotic activity in C57BL/6 mouse model of bleomycin-induced lung fibrosis assessed as reduction in alpha smooth muscle actin level in lung at 60 mg/kg, po treated 7 to 14 days after bleomycin injection and measured after 14 to 28 days by immunohistochemistry analysis; type: functional, organism-based
Mus musculus [10] = experiment: Antifibrotic activity in C57BL/6 mouse model of bleomycin-induced lung fibrosis assessed as reduction in hydroxyproline in lung homogenates at 60 mg/kg, po treated 7 to 14 days after bleomycin injection and measured after 14 to 28 days by chloramine T and Erlich's solution based assay; type: functional, organism-based
Mus musculus [11] = experiment: Antifibrotic activity in COL4A3 deficient mouse A1port model of kidney fibrosis assessed as effect on WT1 protein expression at 30 mg/kg, po dosed during 2 to 3 days of age and measured at 7 to 9 weeks of age by immunohistochemical analysis; type: functional, organism-based
Mus musculus [12] = experiment: Antifibrotic activity in COL4A3 deficient mouse A1port model of kidney fibrosis assessed as effect on MMP10 gene expression at 30 mg/kg, po dosed during 2 to 3 days of age and measured at 7 to 9 weeks of age by RT-PCR analysis; type: functional, organism-based
Mus musculus [13] = experiment: Antifibrotic activity in COL4A3 deficient mouse A1port model of kidney fibrosis assessed as effect on MMP12 gene expression at 30 mg/kg, po dosed during 2 to 3 days of age and measured at 7 to 9 weeks of age by RT-PCR analysis; type: functional, organism-based
Mus musculus [14] = experiment: Antifibrotic activity in COL4A3 deficient mouse A1port model of kidney fibrosis assessed as effect on IL6 gene expression at 30 mg/kg, po dosed during 2 to 3 days of age and measured at 7 to 9 weeks of age by RT-PCR analysis; type: functional, organism-based
Mus musculus [15] = experiment: Antifibrotic activity in COL4A3 deficient mouse A1port model of kidney fibrosis assessed as effect on MCP1 gene expression at 30 mg/kg, po dosed during 2 to 3 days of age and measured at 7 to 9 weeks of age by RT-PCR analysis; type: functional, organism-based
Mus musculus [16] = experiment: Antifibrotic activity in COL4A3 deficient mouse A1port model of kidney fibrosis assessed as effect on TGFbeta1 gene expression at 30 mg/kg, po dosed during 2 to 3 days of age and measured at 7 to 9 weeks of age by RT-PCR analysis; type: functional, organism-based
Mus musculus [17] = experiment: Antifibrotic activity in COL4A3 deficient mouse A1port model of kidney fibrosis assessed as effect on CTGF gene expression at 30 mg/kg, po dosed during 2 to 3 days of age and measured at 7 to 9 weeks of age by RT-PCR analysis; type: functional, organism-based
Mus musculus [18] = experiment: Antifibrotic activity in COL4A3 deficient mouse A1port model of kidney fibrosis assessed as effect on MMP2 gene expression at 30 mg/kg, po dosed during 2 to 3 days of age and measured at 7 to 9 weeks of age by RT-PCR analysis; type: functional, organism-based
Mus musculus [19] = experiment: Antifibrotic activity in COL4A3 deficient mouse A1port model of kidney fibrosis assessed as effect on MMP9 gene expression at 30 mg/kg, po dosed during 2 to 3 days of age and measured at 7 to 9 weeks of age by RT-PCR analysis; type: functional, organism-based
Mus musculus [20] = experiment: Antifibrotic activity in COL4A3 deficient mouse A1port model of kidney fibrosis assessed as effect on collagen-1 protein expression at 30 mg/kg, po dosed during 2 to 3 days of age and measured at 7 to 9 weeks of age by immunohistochemical analysis; type: functional, organism-based
Mus musculus [21] = experiment: Antifibrotic activity in COL4A3 deficient mouse A1port model of kidney fibrosis assessed as effect on CD45 protein expression at 30 mg/kg, po dosed during 2 to 3 days of age and measured at 7 to 9 weeks of age by immunohistochemical analysis; type: functional, organism-based
Mus musculus [22] = experiment: Antifibrotic activity in COL4A3 deficient mouse A1port model of kidney fibrosis assessed as effect on fibronectin protein expression at 30 mg/kg, po dosed during 2 to 3 days of age and measured at 7 to 9 weeks of age by immunohistochemical analysis; type: functional, organism-based
Mus musculus [23] = experiment: Antifibrotic activity in COL4A3 deficient mouse A1port model of kidney fibrosis assessed as effect on smooth muscle actin protein expression at 30 mg/kg, po dosed during 2 to 3 days of age and measured at 7 to 9 weeks of age by immunohistochemical analysis; type: functional, organism-based
Mus musculus [24] = experiment: Antifibrotic activity in COL4A3 deficient mouse A1port model of kidney fibrosis assessed as effect on integrin alpha8 protein expression at 30 mg/kg, po dosed during 2 to 3 days of age and measured at 7 to 9 weeks of age by immunohistochemical analysis; type: functional, organism-based
Mus musculus [25] = experiment: Antifibrotic activity in COL4A3 deficient mouse A1port model of kidney fibrosis assessed as effect on laminin a5 protein expression at 30 mg/kg, po dosed during 2 to 3 days of age and measured at 7 to 9 weeks of age by immunohistochemical analysis; type: functional, organism-based
Mus musculus [26] = experiment: Antifibrotic activity in COL4A3 deficient mouse A1port model of kidney fibrosis assessed as effect on collagen 1 protein expression at 30 mg/kg, po dosed during 2 to 3 days of age and measured at 7 to 9 weeks of age by immunohistochemical analysis; type: functional, organism-based
Mus musculus [27] = experiment: Antifibrotic activity in COL4A3 deficient mouse A1port model of kidney fibrosis assessed as effect on albinuria level at 30 mg/kg, po dosed during 2 to 3 days of age and measured at 7 to 9 weeks of age; type: functional, organism-based
Mus musculus [28] = experiment: Antifibrotic activity in COL4A3 deficient mouse A1port model of kidney fibrosis assessed as effect on BUN level at 30 mg/kg, po dosed during 2 to 3 days of age and measured at 7 to 9 weeks of age; type: functional, organism-based
Lysyl oxidase homolog 2 = molecular target: T1, Lysyl oxidase homolog 2 (Homo sapiens, UniProt Q9Y4K0); experiment: Inhibition of human LOXL2 expressed in CHO cells assessed as reduction in amine oxidase activity incubated for 2 hrs by Amplex red based fluorescence assay; type: cell-based
T1 sequence (Q9Y4K0 whole entry): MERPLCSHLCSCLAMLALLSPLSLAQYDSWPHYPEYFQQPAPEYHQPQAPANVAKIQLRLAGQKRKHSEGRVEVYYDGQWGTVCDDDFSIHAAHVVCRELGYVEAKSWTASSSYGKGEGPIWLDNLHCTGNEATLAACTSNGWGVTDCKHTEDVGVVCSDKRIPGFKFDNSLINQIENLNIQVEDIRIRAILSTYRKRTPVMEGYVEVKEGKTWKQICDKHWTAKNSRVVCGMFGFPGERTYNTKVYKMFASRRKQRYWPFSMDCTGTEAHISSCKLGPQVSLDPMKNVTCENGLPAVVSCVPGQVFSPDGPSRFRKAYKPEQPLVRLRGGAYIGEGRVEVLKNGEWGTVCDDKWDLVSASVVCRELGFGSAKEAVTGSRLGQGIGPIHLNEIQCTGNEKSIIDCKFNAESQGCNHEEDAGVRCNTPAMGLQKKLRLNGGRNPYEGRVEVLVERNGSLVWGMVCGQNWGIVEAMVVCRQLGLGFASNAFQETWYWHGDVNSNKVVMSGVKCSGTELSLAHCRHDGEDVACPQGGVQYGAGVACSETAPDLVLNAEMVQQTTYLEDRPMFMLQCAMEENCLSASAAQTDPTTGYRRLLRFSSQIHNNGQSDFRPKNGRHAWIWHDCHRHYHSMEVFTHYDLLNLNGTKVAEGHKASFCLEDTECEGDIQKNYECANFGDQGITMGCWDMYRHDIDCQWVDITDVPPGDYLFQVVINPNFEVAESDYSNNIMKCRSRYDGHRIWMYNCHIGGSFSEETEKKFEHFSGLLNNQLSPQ

SMILES | Activity (Mus musculus [1]) | Activity (Mus musculus [2]) | Activity (Mus musculus [3]) | Activity (Mus musculus [4]) | Activity (Mus musculus [5]) | Activity (Mus musculus [6]) | Activity (Mus musculus [7]) | Activity (Mus musculus [8]) | Activity (Mus musculus [9]) | Activity (Mus musculus [10]) | also measured
NCc1cc(Oc2cccc(C(=O)N3C[C@@H](O)[C@H](F)C3)c2)nc(C(F)(F)F)c1 | Active | Active | Active | Active | Active | Active | Active | Active | Active | Active | Activity (Mus musculus [11]): Active; Activity (Mus musculus [12]): Active; Activity (Mus musculus [13]): Active; Activity (Mus musculus [14]): Active; Activity (Mus musculus [15]): Active; Activity (Mus musculus [16]): Active; Activity (Mus musculus [17]): Active; Activity (Mus musculus [18]): Active; Activity (Mus musculus [19]): Active; Activity (Mus musculus [20]): Active; Activity (Mus musculus [21]): Active; Activity (Mus musculus [22]): Active; Activity (Mus musculus [23]): Active; Activity (Mus musculus [24]): Active; Activity (Mus musculus [25]): Active; Activity (Mus musculus [26]): Active; Activity (Mus musculus [27]): Active; Activity (Mus musculus [28]): Active
NCc1cc(Oc2cccc(C(=O)NCCn3cnnn3)c2)nc(C(F)(F)F)c1 | Active | Active | Active | Active | Active | – | – | – | – | – | –
NCc1cc(Oc2cccc(C(=O)N3C[C@H](O)[C@@H](F)C3)c2)nc(C(F)(F)F)c1 (racemic) | Active | Active | Active | Active | Active | Active | Active | Active | Active | Active | –
CS(=O)(=O)CCNC(=O)c1cccc(Oc2cc(CN)cc(C(F)(F)F)n2)c1 | Active | Active | Active | Active | Active | – | – | – | – | – | –
CC(C)(C)OC(=O)N1CCN(C(=O)Cn2ccc3c(Oc4cc(CN)cc(C(F)(F)F)n4)cccc32)CC1 | – | – | – | – | – | – | – | – | – | – | IC50 (Lysyl oxidase homolog 2): < 300 nM
NCc1cc(Oc2cccc3c2CCC(=O)N3)nc(C(F)(F)F)c1 | Active | Active | Active | Active | Active | – | – | – | – | – | –
NCc1cc(Oc2cccc(C(=O)N3C[C@H](O)[C@@H](F)C3)c2)nc(C(F)(F)F)c1 (relative stereo) | Active | Active | Active | Active | Active | Active | Active | Active | Active | Active | –
NCc1cc(Oc2cccc(C(=O)Nc3ccccc3)c2)nc(C(F)(F)F)c1 | Active | Active | Active | Active | Active | – | – | – | – | – | –
NCc1cc(O[C@@H]2CCCN(C(=O)Nc3ccccc3)C2)nc(C(F)(F)F)c1 | – | – | – | – | – | – | – | – | – | – | IC50 (Lysyl oxidase homolog 2): 300 to 1000 nM
